The values that follow come from patent publication US7504537B2, “Hydroxamic acid derivative and MMP inhibitor containing the same as active ingredient” (Dainippon Sumitomo Pharma Co., Ltd., priority 2001, dated 2009).

Assay [1] addresses T1, MMP-1 (Homo sapiens, UniProt P03956).
T1 construct: calbiochem cat; purchased calbiochem 444208; host or cells: human rheumatic synovium fibroblast
T1 sequence (P03956 100-469): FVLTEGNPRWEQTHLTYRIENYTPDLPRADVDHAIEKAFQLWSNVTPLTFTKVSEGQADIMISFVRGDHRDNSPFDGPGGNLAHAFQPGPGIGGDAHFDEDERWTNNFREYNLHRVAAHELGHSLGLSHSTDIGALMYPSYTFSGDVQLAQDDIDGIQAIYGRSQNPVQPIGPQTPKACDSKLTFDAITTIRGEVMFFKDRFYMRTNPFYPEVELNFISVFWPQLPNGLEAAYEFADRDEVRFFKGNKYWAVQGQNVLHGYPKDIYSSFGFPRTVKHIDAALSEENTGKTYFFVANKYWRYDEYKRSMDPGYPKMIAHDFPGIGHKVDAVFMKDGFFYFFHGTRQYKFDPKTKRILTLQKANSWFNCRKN
Nature of the assay: Test 6 MMP-1 inhibition activity test. It is filed as biochemical. As to conditions: MMP-1 from human rheumatic synovium fibroblast, activated with AMPA. How it is done: Test 6 MMP-1 Inhibition Activity Test
MMP-1 (stroma collagenase: EC3.4.24.7, human rheumatic synovium fibroblast, calbiochem cat. 444208) was activated with AMPA at 37° C. for 60 minutes. A test compound was preincubated with activated MMP-1 at 37° C. for 60 minutes in the reaction mixture containing 50 mM MOPS (pH 7.2), 10 mM aqueous calcium chloride solution, and 10 μM zinc chloride. Thereto was added 25 μM Mca-Pro-Leu-Dpa-Ala-Arg-NH2, and the mixture was incubated at 37° C. for 120 minutes. The enzyme activity was measured by fluorescence intensity of Mca-Pro-Leu-Gly, and IC50 was calculated.

Assay [2] deals with Adjuvant Arthritis. Nature of the assay: Test 7 Adjuvant arthritis (in vivo). The following applies: Lewis male rats, 50 mg/kg per os once a day for twelve days. Also on record: species or system rat. The text has this:
Test 7 Adjuvant Arthritis (in vivo) For this test Lewis male rats were used. The suspension prepared by suspending Mycobacterium butyricum in liquid paraffin in concentration of 0.5% was subcutaneously injected in a right hind paw. Ten days later the rats in which the definite secondary inflammation on a left hind paw was observed were selected, and to the rats the compound (Example 2) suspended in 0.5% methyl cellulose was orally administered for twelve successive days once a day. Five hours later after finishing administration the volume of the hind paws was compared with the volume when the administration was initiated, and the inhibition activity of edema was evaluated based on this difference.

The subject of assay [3] is degeneration of cartilage. Nature of the assay: Test 8 Rat meniscectomy model test (in vivo). The following applies: male SD (IGS) rats, 50 mg/kg orally once a day for 3 weeks; injured group = 100%. How it is done: Test 8 Rat Meniscectomy Model Test (in vivo)
For this test male rats (6 weeks old SD (IGS)) were used. A meniscus of joint of a right hind limb was partially removed. Compound of Example 2 was orally administered for 3 weeks once a day in the amount of 50 mg/kg. The tissue speciman of the joint was prepared, and stained with safranin O/first green, and the degeneration of cartilage was evaluated. The degree of the degeneration of cartilage in the test compound group was calculated as 100% of the degree of that in the injured group. Cartilage degeneration rate was 33% (*; p<0.05, Steel-test)

Bounds are passed on as bounds.

As for `CCOC(=O)CCN(C1(C(=O)NO)CCCC1)S(=O)(=O)c1ccc(Oc2ccc(S(C)(=O)=O)cc2)cc1` [Example 26, Ethyl N-{1-[(hydroxyamino)carbonyl]cyclopentyl}-N-({4-[4-(methylsulfonyl)phenoxy]phenyl}sulfonyl)-β-alaninate], in assay [1], 3.9 µM corresponded to half-maximal inhibition (IC50).

In the case of `CCOC(=O)CN(CC(=O)NO)S(=O)(=O)c1ccc(Oc2ccc(S(C)(=O)=O)cc2)cc1` [Example 22, Ethyl N-{[(hydroxyamino)carbonyl]methyl}-N-({4-[4-(methylsulfonyl)phenoxy]phenyl}sulfonyl)-glycinate], the IC50 (commonly the concentration that gives 50% inhibition) in assay [1] is above 10 µM.

With `CS(=O)(=O)c1ccc(Oc2ccc(S(=O)(=O)N(Cc3ccccc3)C3(C(=O)NO)CCOCC3)cc2)cc1` [Example 12, 4-[Benzyl({4-[4-(methylsulfonyl)phenoxy]phenyl}sulfonyl)amino]-N-hydroxytetrahydoro-2H-pyrane-4-carboxamide], the IC50 in assay [1] is above 10 µM.

For the compound `CC(C)CN(C1(C(=O)NO)CCCC1)S(=O)(=O)c1ccc(Oc2ccc(S(C)(=O)=O)cc2)cc1` [Example 2, N-hydroxy 1-[isobutyl({4-[4-(methylsulfonyl)phenoxy]phenyl}sulfonyl)amino]cyclopentanecarboxamide], the “Increase of edema, Non injected limb” value in assay [2] (control 1.07 ± 0.31) worked out at 0.74 ± 0.16 mL. For the same compound, the “Increase of edema, Injected limb” value in assay [2] (control −0.24 ± 0.45) was -1.06 ± 0.47 mL. Besides, in assay [3], the Cartilage degeneration rate is on record as 33%. Also, in assay [1], half-maximal inhibition (IC50) was put at 7.21 µM.

For the compound `CS(=O)(=O)c1ccc(Oc2ccc(S(=O)(=O)N(CC(=O)NO)Cc3ccncc3)cc2)cc1` [Example 42, N′^1′-Hydroxy-N′^2′-({4-[4-(methylsulfonyl)phenoxy]phenyl}sulfonyl)-N′^2′-(4-pyridinylmethyl)glycinamide], the IC50 in assay [1] is above 10 µM.

Regarding `CCOCCN(C1(C(=O)NO)CCCC1)S(=O)(=O)c1ccc(Oc2ccc(S(C)(=O)=O)cc2)cc1` [Example 45, 1-[(2-Ethoxyethyl)({4-[4-(methylsulfonyl)phenoxy]phenyl}sulfonyl)amino]-N-hydroxycyclopentanecarboxamide], the IC50 in assay [1] amounted to 4.96 µM. This counts as single-digit micromolar.

Compound `CCOC(=O)CN(C1(C(=O)NO)CCCC1)S(=O)(=O)c1ccc(Oc2ccc(S(C)(=O)=O)cc2)cc1` [Example 23, Ethyl N-{1-[(hydroxyamino)carbonyl]cyclopentyl}-N-({4-[4-(methylsulfonyl)phenoxy]phenyl}sulfonyl)glycinate] came in with a concentration for half-maximal inhibition (IC50) in assay [1] above 10 µM.

`CS(=O)(=O)c1ccc(Oc2ccc(S(=O)(=O)NCC(=O)NO)cc2)cc1` [Example 13, N′^1′-Hydroxy-N′^2′-({4-[4-(methylsulfonyl)phenoxy]phenyl}sulfonyl)glycinamide] registered an IC50 in assay [1] above 10 µM.

In assay [1], `CC(C)CN(C1(C(=O)NO)CCC1)S(=O)(=O)c1ccc(Oc2ccc(S(C)(=O)=O)cc2)cc1` [Example 18, N-Hydroxy-1-[isobutyl({4-[4-(methylsulfonyl)phenoxy]phenyl}sulfonyl)amino]cyclobutanecarboxamide] yielded an IC50 of 3.3 µM. That is a single-digit micromolar value.
